From ChEMBL document CHEMBL1201862, “PubChem BioAssay data set” (2004)
Calls of active or inactive are those of the source.

Assays:
[1] = Trypanosoma cruzi growth suppression in host cells – NIH3T3 host cells, beta-gal luminescence, confirmation (AID 2044); format: functional, cell-based;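 also: intracellular parasites grown in NIH/3T3 mouse fibroblasts as host cells; luminescent beta-galactosidase reporter signal from transgenic T. cruzi replicating inside host cells; inhibitors lower the luminescence signal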
[2] = NIH3T3 cell viability loss – ATP luminescence, mouse fibroblasts, counter-screen, dose response (AID 2010); format: functional, cell-based;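 also: cells exposed to compound for about 90 hours before reading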
[3] = molecular target: T1, Heat shock factor protein 1 (Mus musculus, UniProt P38532); assay: decrease of HSF1-responsive luciferase luminescence – cell-based, NIH3T3, dose retest, confirmation (AID 2382); format: functional;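 also: NIH3T3 fibroblasts with HSF1-driven luciferase reporter stressed by proteasome inhibitor MG132; luminescence from HSF1-driven luciferase expression after 8 hours of MG132 stress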
T1 sequence (P38532 whole entry): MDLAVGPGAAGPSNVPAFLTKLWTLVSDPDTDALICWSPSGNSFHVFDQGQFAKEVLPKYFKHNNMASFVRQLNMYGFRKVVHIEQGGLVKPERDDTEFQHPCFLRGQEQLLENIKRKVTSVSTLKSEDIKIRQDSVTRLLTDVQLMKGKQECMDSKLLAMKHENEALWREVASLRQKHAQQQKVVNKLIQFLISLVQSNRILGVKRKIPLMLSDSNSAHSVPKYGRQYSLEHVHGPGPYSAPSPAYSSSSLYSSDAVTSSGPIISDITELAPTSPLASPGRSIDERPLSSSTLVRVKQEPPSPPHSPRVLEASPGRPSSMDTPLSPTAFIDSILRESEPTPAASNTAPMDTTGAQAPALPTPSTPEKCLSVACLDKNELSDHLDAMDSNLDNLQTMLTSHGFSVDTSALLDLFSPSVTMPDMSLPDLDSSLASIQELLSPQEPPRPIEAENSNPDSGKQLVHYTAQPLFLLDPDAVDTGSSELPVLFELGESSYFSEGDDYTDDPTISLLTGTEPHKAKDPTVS

Streptococcus = assay: GAS UMAA2166 growth inhibition – luminescence, BacTiterGlo, counter-screen for streptokinase expression inhibitor project, dose response (AID 1915); format: functional, organism-based;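 also: potency for reduction of bacterial viability or growth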
[4] = tested on: Streptococcus sp. 'group A'; assay: Streptococcus pyogenes SK(-)GAS viability under kanamycin – luminescence, BacTiterGlo, confirmation, counter-screen for streptokinase expression inhibitor project, dose response (AID 1900); format: functional, organism-based
Streptokinase A = molecular target: T2, Streptokinase A (Streptococcus pyogenes serotype M1, UniProt P10520); assay: viability-normalized secreted streptokinase activity reduction – plasminogen activation absorbance, OD405, dose response (AID 1914); format: functional, Streptococcus pyogenes M1 GAS;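 also: secreted streptokinase activity via plasminogen activation per viability signal from cell pellet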
T2 sequence (P10520 whole entry): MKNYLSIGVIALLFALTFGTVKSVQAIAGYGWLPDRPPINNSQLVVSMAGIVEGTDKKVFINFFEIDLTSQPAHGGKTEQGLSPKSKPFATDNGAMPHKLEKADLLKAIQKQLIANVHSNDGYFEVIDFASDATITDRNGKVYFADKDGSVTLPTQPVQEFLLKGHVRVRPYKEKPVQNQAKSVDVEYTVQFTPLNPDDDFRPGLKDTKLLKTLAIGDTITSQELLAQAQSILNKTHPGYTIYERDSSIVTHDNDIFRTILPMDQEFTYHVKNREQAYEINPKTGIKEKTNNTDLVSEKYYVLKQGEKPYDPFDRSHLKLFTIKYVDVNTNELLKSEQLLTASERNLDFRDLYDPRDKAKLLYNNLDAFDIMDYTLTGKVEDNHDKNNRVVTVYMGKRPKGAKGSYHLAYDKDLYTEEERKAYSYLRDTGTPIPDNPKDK

Cytochrome P450 2C19 = Cytochrome P450 2C19 (Homo sapiens, UniProt P33261); assay: Cytochrome panel assay with activity outcomes. Panel member name: p450-cyp2c19 Compounds with AC50 equal or less than 10 uM are considered active; format: functional
Cytochrome P450 1A2 = molecular target: T3, Cytochrome P450 1A2 (Homo sapiens, UniProt P05177);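 also: PubChem cytochrome P450 panel assay, CYP1A2 panel member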
T3 sequence (P05177 whole entry): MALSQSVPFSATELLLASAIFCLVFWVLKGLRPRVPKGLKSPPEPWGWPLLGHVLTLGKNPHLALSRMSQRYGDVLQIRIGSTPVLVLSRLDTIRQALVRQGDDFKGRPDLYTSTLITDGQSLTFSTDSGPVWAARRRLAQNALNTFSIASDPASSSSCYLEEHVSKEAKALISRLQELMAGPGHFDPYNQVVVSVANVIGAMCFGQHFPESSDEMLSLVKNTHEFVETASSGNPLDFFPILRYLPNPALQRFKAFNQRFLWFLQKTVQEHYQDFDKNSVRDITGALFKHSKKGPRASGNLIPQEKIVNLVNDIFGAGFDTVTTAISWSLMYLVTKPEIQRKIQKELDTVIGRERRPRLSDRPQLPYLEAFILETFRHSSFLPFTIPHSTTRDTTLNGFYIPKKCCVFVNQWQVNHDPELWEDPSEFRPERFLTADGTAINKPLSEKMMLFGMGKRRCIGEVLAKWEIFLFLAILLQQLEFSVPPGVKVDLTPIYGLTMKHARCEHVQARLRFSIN

Chain of Cytochrome P450 2C19 (P33261 whole entry): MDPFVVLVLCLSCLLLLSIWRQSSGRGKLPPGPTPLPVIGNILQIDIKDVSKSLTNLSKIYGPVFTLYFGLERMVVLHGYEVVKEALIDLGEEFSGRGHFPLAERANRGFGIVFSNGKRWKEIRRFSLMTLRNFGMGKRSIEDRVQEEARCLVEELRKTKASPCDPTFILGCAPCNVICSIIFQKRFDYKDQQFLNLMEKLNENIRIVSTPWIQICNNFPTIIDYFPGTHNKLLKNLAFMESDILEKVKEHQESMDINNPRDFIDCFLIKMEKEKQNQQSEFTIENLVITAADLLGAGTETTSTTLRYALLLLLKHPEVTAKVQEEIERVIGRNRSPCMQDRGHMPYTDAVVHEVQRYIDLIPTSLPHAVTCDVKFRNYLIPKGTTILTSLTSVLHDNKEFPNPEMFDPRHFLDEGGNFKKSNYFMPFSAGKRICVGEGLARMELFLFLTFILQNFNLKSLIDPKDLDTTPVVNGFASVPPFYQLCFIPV

## COc1ccc(C(=O)C2CCCN(Cc3ccc(C#CCCO)cc3)C2)cc1F (stereo not drawn)
[1]
  EC50: 0.475 µM (active)
[2]
  EC50: > 60 µM (not active)

## O=C(CSc1nc2cc(Cl)ccc2s1)Nc1cccc(S(=O)(=O)N2CCOCC2)c1
[3]
  EC50: > 195 µM (not active)

## CC(C)(C)N(Cc1ccccc1)C(=O)COc1cccnc1[N+](=O)[O-]
Streptococcus
  EC50: > 150 µM (not active)
[4]
  EC50: > 150 µM (not active)
Streptokinase A
  EC50: > 150 µM (not active)

## CN(C)/C=C/C(=O)c1ccc(-c2ccc(Cl)cc2Cl)o1
[3]
  EC50: > 195 µM (not active)

## Cc1nc(-c2ccc(Cl)cc2)sc1C1(C)CC(c2ccc(Cl)cc2)=NO1 (stereo not drawn)
[3]
  EC50: > 195 µM (not active)

## COC(=O)[C@H]1[C@H]2C[C@@H]3c4[nH]c5cc(OC)ccc5c4CCN3C[C@H]2C[C@@H](OC(=O)c2ccc(N)cc2)[C@@H]1OC
[3]
  EC50: > 195 µM (not active)
[1]
  EC50: 2.04 µM (active)
[2]
  EC50: > 30 µM (not active)

## COC(=O)c1cc2ccsc2n1Cc1nc(-c2ccc(Cl)cc2)oc1C
[3]
  EC50: > 195 µM (not active)

## O=C(NC(=S)Nn1cnc2c(cnn2-c2ccccc2)c1=O)c1ccc(Oc2ccccc2)cc1
Streptococcus
  EC50: > 150 µM (not active)
Streptokinase A
  EC50: > 150 µM (not active)

## Cc1ccc(CN(C(=O)c2ccco2)C2CCS(=O)(=O)C2)cc1 (stereo not drawn)
Streptococcus
  EC50: > 150 µM (not active)
[4]
  EC50: > 150 µM (not active)
Streptokinase A
  EC50: > 150 µM (not active)

## Cc1ccc(CN2CCN(Cc3cccc4c3OCO4)CC2CCO)cc1 (stereo not drawn)
[1]
  EC50: 0.258 µM (active)
[2]
  EC50: > 60 µM (not active)

## Cc1ccc(S(=O)(=O)c2c(C(=O)c3ccccc3)cnc3cc4c(cc23)OCCO4)cc1
[3]
  EC50: > 195 µM (not active)

## Cc1ccccc1Nc1c(-c2ccncc2)nc2ccc(Br)cn12
[1]
  EC50: 0.832 µM (active)
[2]
  EC50: > 30 µM (not active)

## CC1=[N+]([O-])C2(C)CCCCC2(O)[N+]([O-])=C1C (stereo not drawn)
Cytochrome P450 2C19; read-out: AC50
  AC50: 15.8 µM (inconclusive)

## COc1ccc(-n2c(=O)[nH]cc(C(=O)Nc3ccc4c(c3)OCCO4)c2=O)cc1
Cytochrome P450 2C19; read-out: AC50
  AC50: 10 µM (inconclusive)

## Cc1ccc(CN(C(=O)Cc2cccs2)C(C(=O)NC2CCCC2)c2ccncc2)cc1 (stereo not drawn)
[1]
  EC50: 2.29 µM (active)
[2]
  EC50: > 60 µM (not active)

## CN(C)CCCNc1cnnc(O)c1Cl
[1]
  EC50: 0.658 µM (active)
[2]
  EC50: > 30 µM (not active)

## Cc1ccccc1-c1nc2c3ccccc3nc(S)n2n1
Streptococcus
  EC50: > 150 µM (not active)
[4]
  EC50: 14 µM (active)
Streptokinase A
  EC50: > 150 µM (not active)

## CCOC(=O)c1cnc(-c2ccccc2)nc1Oc1cccc(Cl)c1
Cytochrome P450 2C19; read-out: AC50
  AC50: 3.98 µM (inconclusive)

## CCOC(=O)Cc1csc(NC(=O)CSc2nnc(-c3ccc(OC)cc3)n2C)n1
[1]
  EC50: > 60 µM (not active)
[2]
  EC50: > 60 µM (not active)

## CSc1nc(NCc2ccccc2)c2c3c(sc2n1)CN(C)CC3
[1]
  EC50: 0.208 µM (active)
[2]
  EC50: > 30 µM (not active)

## S=C1NCN2CCN(CC2)CNC(=S)C(=S)NCN2CCN(CC2)CNC1=S
Cytochrome P450 1A2
  AC50: 3.16 µM (inconclusive)

## O=C1CC(c2nc3ccccc3[nH]2)CN1c1ccccc1F (stereo not drawn)
[3]
  EC50: > 195 µM (not active)

## O=[N+]([O-])c1ccc(Sc2nccn2Cc2ccccc2)c([N+](=O)[O-])c1
[1]
  EC50: 3.06 µM (active)
[2]
  EC50: > 60 µM (not active)

## Oc1ccccc1CNn1cnnc1
Cytochrome P450 2C19; read-out: AC50
  AC50: 0.2 µM (inconclusive)

## COc1cccc(CNC(=O)Cn2c(=O)c3cccn3c3ccccc32)c1
[3]
  EC50: > 195 µM (not active)

## CCCc1c(OCCCOc2ccc(OCC(=O)O)cc2)ccc(CC=O)c1O
Cytochrome P450 1A2
  AC50: 31.6 µM (inconclusive)

## COc1cc(/C=C2/SC(=S)N(Cc3ccccc3)C2=O)ccc1O
Streptococcus
  EC50: 7.59 µM (active)
[4]
  EC50: 3.89 µM (active)
Streptokinase A
  EC50: > 150 µM (not active)

## CSc1ncc(C(=O)Nc2cccnc2)c(C(F)(F)F)n1
[3]
  EC50: > 195 µM (not active)

## NC(=O)C1CCN(c2ccnc3cc(Cl)ccc23)CC1
[3]
  EC50: > 195 µM (not active)

## Cc1ccccc1-n1cnc2c(sc3nc(N4CCOCC4)c4c(c32)CCCC4)c1=O
[1]
  EC50: 1.8 µM (active)
[2]
  EC50: > 60 µM (not active)

## C[C@@](N)(C(=O)O)c1cccc(CC(=O)O)c1
Cytochrome P450 2C19; read-out: AC50
  AC50: 20 µM (inconclusive)
Cytochrome P450 1A2
  AC50: 39.8 µM (inconclusive)

## CN(C)c1ccc(C(=S)N2CCN(S(=O)(=O)c3ccccc3)CC2)cc1
[1]
  EC50: 2.98 µM (active)
[2]
  EC50: > 60 µM (not active)

## N#Cc1cccc(-c2nccc(NCc3cccnc3)n2)c1
Cytochrome P450 2C19; read-out: AC50
  AC50: 20 µM (inconclusive)

## CCn1c(=O)c(C(=O)NNC(=O)c2ccccc2)c(O)c2ccccc21
Streptococcus
  EC50: 20.9 µM (active)
[4]
  EC50: 7.44 µM (active)
Streptokinase A
  EC50: > 150 µM (not active)

## CNc1cc(N2CCCCCC2)ccc1[N+](=O)[O-]
Cytochrome P450 2C19; read-out: AC50
  AC50: 3.55 µM (inconclusive)

## Cc1ccc(C)c(NC(=O)COc2coc(CN3CCc4ccccc4C3)cc2=O)c1
[3]
  EC50: > 195 µM (not active)

## Oc1nc(CSc2ncnc3sccc23)nc2ccccc12
Streptococcus
  EC50: 14.3 µM (active)
[4]
  EC50: 0.734 µM (active)
Streptokinase A
  EC50: > 150 µM (not active)

## COc1cc(NC(=O)c2cc3cccc(OC)c3o2)cc(C(=O)Nc2cccc(C(F)(F)F)c2)c1
[3]
  EC50: 3.5 µM (active)

## Cc1ccc(Cn2ncc3c(N4CCN(C)CC4)ncnc32)cc1
[3]
  EC50: > 195 µM (not active)

## O=C(Cn1cnc2c(nnn2Cc2ccc(Cl)cc2)c1=O)N1CCCc2ccccc21
[3]
  EC50: > 195 µM (not active)

## N#CCCn1c(=O)cnc2cnc(Oc3ccccc3)nc21
Cytochrome P450 1A2
  AC50: 15.8 µM (inconclusive)

## CC(C)NC(=O)N1CC2(CCN(C(=O)c3cc(C(F)(F)F)cc(C(F)(F)F)c3)CC2)C1
Cytochrome P450 1A2
  AC50: 12.6 µM (inconclusive)

## Nn1c(=O)c2ccccc2n2c(SCc3ccccc3)nnc12
[3]
  EC50: > 195 µM (not active)

## COc1ccc(C(Nc2ccccn2)c2c(NC(=O)c3ccco3)sc(C)c2C)cc1 (stereo not drawn)
[1]
  EC50: 1.86 µM (active)
[2]
  EC50: > 60 µM (not active)

## CC(=O)N(CCCc1ccc(C(C)(C)C)cc1)CCCN(C)C
[1]
  EC50: 0.65 µM (active)
[2]
  EC50: > 60 µM (not active)

## CCN(CC)S(=O)(=O)c1ccc(N2CCN(c3cccc(OC)c3)CC2)c([N+](=O)[O-])c1
[1]
  EC50: 1.3 µM (active)
[2]
  EC50: > 60 µM (not active)

## O=c1c(-c2cc(F)cc(F)c2)nc2cnc(N3CCOCC3)nc2n1-c1ccccc1
Cytochrome P450 1A2
  AC50: 5.01 µM (inconclusive)

## COc1ccc(C2C(=O)N(C3CCCCCC3)CC(=O)N2Cc2ccccc2)cc1OC (stereo not drawn)
Cytochrome P450 2C19; read-out: AC50
  AC50: 39.8 µM (inconclusive)

## CCCN1C(=O)/C(=C\c2ccncc2)S/C1=N/c1ccccc1
[3]
  EC50: > 195 µM (not active)

## COc1ccc(/C=N/n2c(C)nc3c4ccccc4nc-3c2O)cc1CN1CCCC(C)(C)C1
Streptococcus
  EC50: > 150 µM (not active)
[4]
  EC50: 10.9 µM (active)
Streptokinase A
  EC50: > 150 µM (not active)

## O=C(O)COc1ccc(/C=N/Nc2nc(Nc3ccccc3)nc(N3CCCCC3)n2)cc1
Streptococcus
  EC50: 16.7 µM (active)
[4]
  EC50: 18.2 µM (active)
Streptokinase A
  EC50: > 150 µM (not active)

## COC(=O)c1cc(=O)n(C2CC2)/c(=N/C2CC2)s1
Cytochrome P450 2C19
  AC50: inconclusive

## CC(=O)Nc1c(O)oc2ccccc2/c1=N\C(C)C
Cytochrome P450 2C19
  AC50: inconclusive

## O=C(O)CCN1Cc2ccccc2C1=O
[3]
  EC50: > 195 µM (not active)

## CC(C)Cn1c(=O)n(C)c(=O)c2[nH]cnc21 [ISOBUTYLMETHYLXANTHINE]
Cytochrome P450 1A2
  AC50: 20 µM (inconclusive)
